Test results reported in article PMC10987858 (Heliyon, 2024).

Target: Bovine Serum Albumin (BSA) (Bos taurus, UniProt P02769)
Test: tryptophan fluorescence quenching titration
Assay type: binding
Conditions: 298 K; phosphate buffer, pH not given; 10 μM BSA stock; double-log

Chain of Bovine Serum Albumin (BSA) (P02769 25-607): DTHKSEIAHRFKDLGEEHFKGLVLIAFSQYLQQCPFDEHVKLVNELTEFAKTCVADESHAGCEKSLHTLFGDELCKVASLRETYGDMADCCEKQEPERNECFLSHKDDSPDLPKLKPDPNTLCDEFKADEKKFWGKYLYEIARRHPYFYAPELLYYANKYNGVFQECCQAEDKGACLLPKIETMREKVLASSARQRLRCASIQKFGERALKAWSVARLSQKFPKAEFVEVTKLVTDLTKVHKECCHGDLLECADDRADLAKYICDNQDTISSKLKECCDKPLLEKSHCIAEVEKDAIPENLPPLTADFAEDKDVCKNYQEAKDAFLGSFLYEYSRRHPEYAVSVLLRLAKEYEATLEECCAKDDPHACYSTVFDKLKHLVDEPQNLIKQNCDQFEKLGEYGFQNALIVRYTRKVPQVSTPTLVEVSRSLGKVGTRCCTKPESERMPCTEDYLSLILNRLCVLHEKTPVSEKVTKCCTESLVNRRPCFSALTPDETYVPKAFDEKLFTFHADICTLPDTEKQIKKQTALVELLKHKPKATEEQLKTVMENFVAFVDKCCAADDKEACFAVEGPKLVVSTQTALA

| SMILES | Kb [M⁻¹] |
| --- | --- |
| O=C(Cc1ccccc1)NN=Cc1ccco1 [FMPAH, N’-(furan-2-ylmethylene)-2-phenylacetohydrazide] | 44500 |
| CC=NNC(=O)Cc1ccccc1 [EPAH, N′-ethylidene-2-phenylacetohydrazide] | 2.47e+06 |
| O=C(Cc1ccccc1)NN=Cc1ccccc1O [HBPAH, N'-(2-hydroxybenzylidene)-2-phenylacetohydrazide] | 683000 |
| O=C(Cc1ccccc1)N/N=C/C=C/c1ccccc1 [PPAH, 2-Phenyl-N'-(3-phenylallylidene)acetohydrazide] | 1.75e+08 |
